These results are taken from patent US8497263B2, “Pyrrolinone derivative and pharmaceutical composition comprising the same” (Shionogi & Co., Ltd., priority 2007, dated 2013).

pIC50: −log10 of the molar value.

In data set [1] the target is T1, human P2X3 receptor (Homo sapiens, UniProt P56373).
T1 construct: expressed in transfected cells
T1 sequence (P56373 1-397): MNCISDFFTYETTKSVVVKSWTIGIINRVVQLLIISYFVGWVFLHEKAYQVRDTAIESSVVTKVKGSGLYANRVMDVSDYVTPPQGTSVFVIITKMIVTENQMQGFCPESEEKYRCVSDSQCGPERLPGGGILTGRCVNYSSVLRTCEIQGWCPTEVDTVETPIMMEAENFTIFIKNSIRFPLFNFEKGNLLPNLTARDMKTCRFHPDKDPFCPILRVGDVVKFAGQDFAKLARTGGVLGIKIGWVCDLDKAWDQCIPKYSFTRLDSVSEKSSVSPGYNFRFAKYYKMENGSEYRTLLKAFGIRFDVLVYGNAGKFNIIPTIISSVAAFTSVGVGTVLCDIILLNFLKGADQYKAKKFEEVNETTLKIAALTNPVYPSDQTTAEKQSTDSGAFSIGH
In words: Inhibition of ATP-induced calcium fluorescence (Fluo-3, FDSS 3000) in C6BU-1 cells stably expressing human P2X3 receptor. It counts as cell-based. The following applies: C6BU-1 cell transfected with human P2X3 receptor gene; 40 nM ATP solution; Fluo-3 fluorescence intensity. The protocol: Stably expressing cell line (C6BU-1 cell transfected with human P2X3 receptor gene (GenBank accession number Y07683)) was used. The cells were seeded in a 96-well microtiter plate at a concentration of 8000 cells/well and cultured in the medium (8.3% fetal bovine serum, 8.3% horse serum, 1% antibiotic and antifungal in DMEM) for one day at 37° C. under 5% carbon dioxide atmosphere. The medium was replaced with 4 μM Fluo-3-AM solution (pH7.5) containing 20 mM HEPES, 137 mM NaCl, 2.7 mM KCl, 0.9 mM MgCl2, 5.0 mM CaCl2, 5.6 mM D-glucose, 2.5 mM probenecid, 10% BSA, and 0.08% Pluronic F-127, and incubated at 37° C. under 5% dioxide carbon atmosphere for one hour. The plate was washed with washing buffer (20 mM HEPES, 137 mM NaCl, 2.7 mM KCl, 0.9 mM MgCl2, 5.0 mM CaCl2, 5.6 mM D-glucose, 2.5 mM probenecid, pH7.5), and each well was added with 40 μL of this buffer. The plate was placed in High-Throughput Screening System FDSS 3000 (Hamamatsu Photonics K.K.). Measurement of fluorescence intensity by FDSS 3000 was started, and 40 μL of DMSO solutions containing different concentrations of the test compound as prepared by dilution with dilution buffer (20 mM HEPES, 137 mM NaCl, 2.7 mM KCl, 0.9 mM MgCl2, 5.0 mM CaCl2, 5.6 mM D-glucose, 2.5 mM probenecid, 0.1% Pluronic F-127, pH7.5) were dispensed to each well through the built-in automatic dispenser. Five minutes after, 40 nM ATP solution (50 μL) prepared by dilution with the dilution buffer was dispensed through the built-in automatic dispenser, and the measurement of fluorescence intensity was continued for 3 min. For each well, the specific maximum fluorescence intensity was calculated as the ratio of the maximum fluorescence intensity after addition of the ATP solution to the fluorescence intensity at the starting of the measurement. […] FDSS software (Hamamatsu Photonics K.K.) was used for calculation of the specific maximum fluorescence intensity. IC50 was calculated using Microsoft™ Excel™ (Microsoft Corporation) and XLfit™ (ID Business Solutions Ltd.).

Usually pIC50 stands for −log10 of the IC50, conventionally taken in molar units. A word on the melting point: it is the temperature of the solid-liquid transition. For the molecule `COc1ccc(C(=O)C2=C(O)C(=O)N(c3ccc(SC(F)(F)F)cc3)C2c2ccc(F)cc2)cc1` (centres unmarked) [Example I-45], the melting point was 225 to 228 °C (dec.). The pIC50 in data set [1] is 6.24.

For `COc1ccc(C(=O)C2=C(O)C(=O)N(c3ccc(OC(F)(F)F)cc3)C2c2ccc(F)cc2)cc1` (centres unmarked) [Example I-48], the melting point fell in the range of 241 to 244 °C. Also, in data set [1], the pIC50 was 6.01.

Molecule `COc1ccc(C(=O)C2=C(O)C(=O)N(c3ccc(C4=NCCO4)cc3)C2c2ccc(F)cc2)cc1` (centres unmarked) [Example I-69] registered a melting point of 189 to 192 °C. The pIC50 in data set [1] was 5.42.

In the case of `CC(C)(C)c1n[nH]c2c1C(C1CCCCC1)N(c1ccc(-c3ccon3)cc1)C2=O` (centres unmarked) [Example I-96, 3-tert-butyl-4-cyclohexyl-5-(4-isoxazol-3-ylphenyl)-4,5-dihydro-1H-pyrrolo[3,4-c]pyrazol-6-one], the melting point lay within 251 to 252 °C. Moreover, in data set [1], the negative logarithm of the IC50 (pIC50) is 6.04.
